≈ marks a conversion by molar mass, not a printed value. Read-outs that look alike come from different tables or passages of the source.
Tests used:
HSV- I = test: HSV antiviral (ELISA) assay; assay type: cell-based; conditions: HSV- I, Vero cells, ELISA; read-out: IC50 (ug/ml) HSV
Outline: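 IC50 from fluorescence versus untreated control in a cell ELISA: anti-glycoprotein D antibody, β-galactosidase-conjugated secondary, 4-methyl umbelliferone read at 365/450 nm. Vero cells (2% FBS DMEM) received compound 30 min pre-infection with HSV-1 at MOI 0.006, fixed ~24 h post-infection.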

VZV strain Ellen = test: VZV antiviral (ELISA) assay; assay type: cell-based; conditions: for IC50: read-out: IC50 (ug/ml) VZV
Outline: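 HFF cells infected with VZV Ellen at multiplicity below 0.1 overnight, then mixed infected/uninfected cells seeded with compound in DMEM/2% FBS and incubated three days at 37°C, 5% CO2.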

[1] = system: HCMV recombinant mutant virus whose genome contains the prokaryotic beta-glucuronidase gene; test: microbe, parasite or virus in culture; assay type: cell-based, human cytomegalovirus; conditions: Human betaherpesvirus 5, Fibroblast
Outline: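 Antiviral IC50 estimated from reduced reporter activity across compound amounts: lysates prepared 96 h after infection were tested with p-nitrophenyl- or methylumbelliferyl-glucuronide. Cells were human foreskin fibroblasts, infected alongside inhibitor with HCMV (e.g. RV145) expressing viral promoter-driven beta-glucuronidase.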

[2] = Human alphaherpesvirus 3, HFF, read-out: % inhibition 10 ug/ml VZV
[3] = read-out: IC50 ug/ml HCMV, HCMV, human foreskin fibroblasts
[4] = Human alphaherpesvirus 3, VZV strain Ellen, HFF cells, ELISA

Row | SMILES | IC50 (HSV- I) [µg/mL] | inhibition at 10 µg/mL (VZV strain Ellen; [2]) [%] | IC50 (VZV strain Ellen; Human alphaherpesvirus 3, HFF) [µg/mL] | IC50 [1, 3] [µg/mL] | inhibition at 10 µg/mL (VZV strain Ellen; Human alphaherpesvirus 3, read-out: % inhibition 10 ug/ml VZV, 10 ug/ml, VZV strain Ellen, HFF cells, ELISA) [%] | IC50 (VZV strain Ellen; [4]) [µg/mL] | IC50 ([1]; read-out: IC50 ug/ml HCMV) [µg/mL]
1 | O=C(Nc1ccc(NC(=S)Nc2ccc(Cl)c(C(F)(F)F)c2)cc1)c1ccccc1F [Example 244, N-{4-[3-(4-Chloro-3-trifluoromethyl-phenyl)-thioureido]-phenyl}-2-fluoro-benzamide] | > 10 | 18 | > 10 | > 10 |  |  | 
2 | CS(=O)(=O)Nc1ccc(NC(=S)Nc2ccc(NC(=O)c3ccccc3F)cc2)cc1Cl [Example 370, N-{4-[3-(3-Chloro-4-methanesulfonylamino-phenyl)-thioureido]-phenyl}-2-fluoro-benzamide] | > 10 | 16 | > 10 | > 10 |  |  | 
3 | O=C(Nc1ccc(NC(=S)Nc2cc(Cl)c(Cl)c(Cl)c2)cc1)c1ccccc1F [Example 937, 2-Fluoro-N-{4-[3-(3,4,5-trichloro-phenyl)-thioureido]-phenyl}-benzamide] | 0.7 (≈ 1.49 µM) |  |  |  | 25 | > 10 | 2 (≈ 4.27 µM)
4 | COc1cc(C)c(Cl)cc1NC(=S)Nc1ccc(NC(=O)c2ccccc2F)cc1Cl [Example 458, N-{3-Chloro-4-[3-(5-chloro-2-methoxy-4-methyl-phenyl)-thioureido]-phenyl}-2-fluoro-benzamide] | 0.06 (≈ 0.125 µM) | 25 | > 10 | > 10 |  |  | 
5 | CC(NC(=S)Nc1ccc(NC(=O)c2ccc(O)cc2)cc1)c1ccc(F)cc1 (stereo not shown) [Example 760, N-(4-{3-[1-(4-Fluoro-phenyl)-ethyl]-thioureido}-phenyl)-4-hydroxy-benzamide] | > 10 |  |  |  |  | > 10 | > 10
